Test results taken from article PMC7539012, “Hyperphosphorylated tau aggregation and cytotoxicity modulators screen identified prescription drugs linked to Alzheimer's disease and cognitive functions” (Scientific Reports, 2020).
Structures can show the parent of a compound that is named as a salt. Where two headings read alike, the source gives them in different places. Where a SMILES comes first, the peptide text is derived from it. [ ]: non-standard residue; d: D form. The star is where a group is joined. Sta = CC(C)C[C@H](N)[C@@H](O)CC(=O)O; pGlu = O=C1CC[C@@H](C(=O)O)N1; Isovaleryl = CC(C)CC(=O)*; Thz = O=C(O)[C@@H]1CSCN1

Tested on: T1, 1N4R p-tau
T1 construct: made in house; host or cells: E. coli (PIMAX system)
Assay: p-tau aggregation modulator screen of 1280-compound library (ThS fluorescence net change over 16 h);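 on ThS net change: 30 µM compound with 6 µM p-tau over 16 h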
Assay type: biochemical
Parameters: key to PTAI>3SD: *: PTAI>3SD

[1] = p-tau aggregation modulator screen of 1280-compound library, ThS fluorescence net change
[2] = p-tau aggregation modulator screen of the compound library, ThS fluorescence net change
[3] = 1280-compound library screen, ThS fluorescence net change over 16 h
[4] = p-tau aggregation modulator screen of 1280-compound library, […]
[5] = library screen, ThS fluorescence net change over 16 h with p-tau
[6] = 1280-compound library screen, […]

## Nc1nc2[nH]cc(CCc3ccc(C(=O)N[C@@H](CCC(=O)O)C(=O)O)cc3)c2c(=O)[nH]1 [Pemetrexed disodium]
  ThS net change: 441

## Cc1cccn2c(=O)c(-c3nnn[nH]3)cnc12 [Pemirolast potassium]
  ThS net change: 446

## CN1C(C)(C)CCCC1(C)C [Pempidine tartrate]
[1]
  ThS net change: 362

## CC(C)(C)NC[C@H](O)COc1ccccc1C1CCCC1 [Penbutolol sulfate]
[2]
  ThS net change: 457

## Nc1nc2c(ncn2CCC(CO)CO)c(=O)[nH]1 [Penciclovir]
[3]
  ThS net change: 397

## N=C(N)c1ccc(OCCCCCOc2ccc(C(=N)N)cc2)cc1 [Pentamidine isethionate]
[2]
  ThS net change: 479

## O=C(O)CN(CCN(CC(=O)O)CC(=O)O)CCN(CC(=O)O)CC(=O)O [Pentetic acid]
[2]
  ThS net change: 480

## CCCC(C)C1(CC)C(=O)NC(=O)NC1=O (stereo not shown) [Pentobarbital]
[4]
  ThS net change: 354

## C[N+]1(CCCCC[N+]2(C)CCCC2)CCCC1.O=C([O-])C(O)C(O)C(=O)O.O=C([O-])C(O)C(O)C(=O)O [Pentolinium bitartrate]
[1]
  ThS net change: 369

## CC(=O)CCCCn1c(=O)c2c(ncn2C)n(C)c1=O [Pentoxifylline]
[5]
  ThS net change: 314

## C1CCc2nnnn2CC1 [Pentylenetetrazole]
[4]
  ThS net change: 365

## CC(C)CC(=O)N[C@H](C(=O)N[C@H](C(=O)N[C@@H](CC(C)C)[C@@H](O)CC(=O)N[C@@H](C)C(=O)N[C@@H](CC(C)C)[C@@H](O)CC(=O)O)C(C)C)C(C)C [Pepstatin A] (Isovaleryl-VV[Sta]A[Sta]-OH)
[3]
  ThS net change: 389

## CCCN1C[C@H](CSC)C[C@@H]2c3cccc4[nH]cc(c34)C[C@H]21 [Pergolide mesylate]
[5]
  ThS net change: 279

## C1CCC(C(CC2CCCCN2)C2CCCCC2)CC1 (stereo not shown) [Perhexiline maleate]
[1]
  ThS net change: 342

## CCC[C@H](N[C@@H](C)C(=O)N1[C@H](C(=O)O)C[C@@H]2CCCC[C@@H]21)C(=O)OCC [Perindopril]
[2]
  ThS net change: 426

## O=C1[C@H]2CCCC[C@H]2C(=O)N1CCCCN1CCN(c2nsc3ccccc23)CC1 [Perospirone]
[2]
  ThS net change: 426

## OCCN1CCN(CCCN2c3ccccc3Sc3ccc(Cl)cc32)CC1 [Perphenazine]
[1]
  ThS net change: 328

## CCOc1ccc(NC(C)=O)cc1 [Phenacetin]
[3]
  ThS net change: 400

## Nc1ccc(/N=N/c2ccccc2)c(N)n1 [Phenazopyridine hydrochloride]
flag: p-tau aggregation inhibitor, ThS net change more than 3 SD from mean
  PTAI>3SD: *
[5]
  ThS net change: 12

## NNCCc1ccccc1 [Phenelzine sulfate]
[1]
  ThS net change: 369

## CC(Oc1ccccc1)C(=O)N[C@@H]1C(=O)N2[C@@H]1SC(C)(C)[C@@H]2C(=O)[O-].[K+] (stereo partly shown) [Phenethicillin potassium salt]
[6]
  ThS net change: 387

## [H]/N=C(/N)N/C(=N/[H])NCCc1ccccc1 [Phenformin hydrochloride]
[1]
  ThS net change: 369

## O=C1c2ccccc2C(=O)C1c1ccccc1 [Phenindione]
[3]
  ThS net change: 378

## CN(C)CCC(c1ccccc1)c1ccccn1 (stereo not shown) [Pheniramine maleate]
[5]
  ThS net change: 318

## c1ccc2c(c1)Nc1ccccc1S2 [Phenothiazine]
  ThS net change: 421

## CC(COc1ccccc1)N(CCCl)Cc1ccccc1 (stereo not shown) [Phenoxybenzamine hydrochloride]
  ThS net change: 560

## NC(=O)OCCCc1ccccc1 [Phenprobamate]
  ThS net change: 323

## CN1C(=O)CC(c2ccccc2)C1=O (stereo not shown) [Phensuximide]
[2]
  ThS net change: 453

## CC(C)(N)Cc1ccccc1.Cl [Phentermine hydrochloride]
[6]
  ThS net change: 408

## Cc1ccc(N(CC2=NCCN2)c2cccc(O)c2)cc1 [Phentolamine hydrochloride]
[1]
  ThS net change: 334

## CCCCC1C(=O)N(c2ccccc2)N(c2ccccc2)C1=O [Phenylbutazone]
[2]
  ThS net change: 413

## CC(N)C(O)c1ccccc1 (stereo not shown) [Phenylpropanolamine hydrochloride]
  ThS net change: 395

## O=C(O)c1ccccc1C(=O)Nc1ccc(S(=O)(=O)Nc2nccs2)cc1 [Phthalylsulfathiazole]
[2]
  ThS net change: 425

## COc1ccc(C(=O)NCc2cccnc2)cc1C(=O)NCc1cccnc1.O [Picotamide monohydrate]
[4]
  ThS net change: 355

## C=C(C)[C@@H]1[C@H]2OC(=O)[C@@H]1[C@]1(O)C[C@H]3O[C@]34C(=O)O[C@H]2[C@]14C [Picrotoxinin]
[6]
  ThS net change: 390

## O=C1CC[C@@H](C(=O)N2CSC[C@H]2C(=O)O)N1 [Pidotimod] ([pGlu]-[Thz]-OH)
[2]
  ThS net change: 441

## CC[C@@H]1C(=O)OC[C@@H]1Cc1cncn1C [Pilocarpine nitrate]
[6]
  ThS net change: 378

## CN1CCC(=C2c3ccccc3Sc3ccccc32)CC1 [Pimethixene maleate]
[5]
  ThS net change: 320

## O=c1[nH]c2ccccc2n1C1CCN(CCCC(c2ccc(F)cc2)c2ccc(F)cc2)CC1 [Pimozide]
[5]
  ThS net change: 274

## CC(N/C(=N\C#N)Nc1ccncc1)C(C)(C)C (stereo not shown) [Pinacidil]
[3]
  ThS net change: 391

## CC(C)NCC(O)COc1cccc2[nH]ccc12 (stereo not shown) [Pindolol]
[1]
  ThS net change: 331

## CCc1ccc(CCOc2ccc(CC3SC(=O)NC3=O)cc2)nc1 (stereo not shown) [Pioglitazone]
[3]
  ThS net change: 410

## CCn1cc(C(=O)O)c(=O)c2cnc(N3CCNCC3)nc21 [Pipemidic acid]
[1]
  ThS net change: 377

## CC[N+]1(C)CCCC(OC(=O)C(O)(c2ccccc2)c2ccccc2)C1 (stereo not shown) [Pipenzolate bromide]
  ThS net change: 395

## CC(=O)c1ccc2c(c1)N(CCCN1CCC(CCO)CC1)c1ccccc1S2 [Piperacetazine]
[5]
  ThS net change: 243

## CCN1CCN(C(=O)N[C@@H](C(=O)N[C@@H]2C(=O)N3[C@@H]2SC(C)(C)[C@@H]3C(=O)O)c2ccccc2)C(=O)C1=O [Piperacillin sodium salt]
[1]
  ThS net change: 354

## CCN1CCCC(OC(=O)C(c2ccccc2)c2ccccc2)C1 (stereo not shown) [Piperidolate hydrochloride]
[3]
  ThS net change: 406

## NC(=O)CN1CCCC1=O [Piracetam]
[3]
  ThS net change: 406

## Cc1nc2ccccn2c(=O)c1CCN1CCC(C(=O)c2ccc(F)cc2)CC1 [Pirenperone]
[3]
  ThS net change: 388

## CN1CCN(CC(=O)N2c3ccccc3C(=O)Nc3cccnc32)CC1 [Pirenzepine dihydrochloride]
[5]
  ThS net change: 322

## NS(=O)(=O)c1cc(C(=O)O)cc(N2CCCC2)c1Oc1ccccc1 [Piretanide]
[2]
  ThS net change: 435

## Cl.c1cnc(N2CCN(Cc3ccc4c(c3)OCO4)CC2)nc1 [Piribedil hydrochloride]
[3]
  ThS net change: 392

## CS(=O)(=O)O.Cc1ccc2c(c1)c1c3n2CCNC3CCC1 (stereo not shown) [Pirlindole mesylate]
[2]
  ThS net change: 461

## CCn1cc(C(=O)O)c(=O)c2cnc(N3CCCC3)nc21 [Piromidic acid]
[3]
  ThS net change: 394

## CN1C(C(=O)Nc2ccccn2)=C(O)c2ccccc2S1(=O)=O [Piroxicam]
[1]
  ThS net change: 329

## CC(C)(C)C(=O)OCOC(=O)[C@@H]1N2C(=O)[C@@H](NC(=O)[C@H](N)c3ccccc3)[C@H]2SC1(C)C [Pivampicillin]
[2]
  ThS net change: 481

## CC(C)(C)C(=O)OCOC(=O)[C@@H]1N2C(=O)[C@@H](/N=C/N3CCCCCC3)[C@H]2SC1(C)C [Pivmecillinam hydrochloride]
[2]
  ThS net change: 423

## CN1CCC(=C2c3ccccc3CCc3sccc32)CC1.O=C(O)CC(O)C(=O)O [Pizotifen malate]
[2]
  ThS net change: 437

## COc1cc([C@@H]2c3cc4c(cc3[C@H](O)[C@H]3COC(=O)[C@H]23)OCO4)cc(OC)c1OC [Podophyllotoxin]
[6]
  ThS net change: 402

## CC(=O)Nc1ccc(OCC(O)CNC(C)C)cc1 (stereo not shown) [Practolol]
[3]
  ThS net change: 383

## C[n+]1ccccc1/C=N/O [Pralidoxime chloride]
[6]
  ThS net change: 397

## CCCN[C@H]1CCc2nc(N)sc2C1 [Pramipexole dihydrochloride]
[3]
  ThS net change: 385

## CCCCOc1ccc(OCCCN2CCOCC2)cc1 [Pramoxine hydrochloride]
[3]
  ThS net change: 381

## O=C(Nc1cccc2c(=O)cc(-c3nnn[nH]3)oc12)c1ccc(OCCCCc2ccccc2)cc1 [Pranlukast]
[5]
  ThS net change: 288

## CC(C(=O)O)c1ccc2c(c1)Cc1cccnc1O2 (stereo not shown) [Pranoprofen]
[1]
  ThS net change: 345

## CC[C@H](C)C(=O)O[C@H]1C[C@H](O)C=C2C=C[C@H](C)[C@H](CC[C@@H](O)C[C@@H](O)CC(=O)O)[C@H]21 [Pravastatin]
[2]
  ThS net change: 467

## O=C(C1CCCCC1)N1CC(=O)N2CCc3ccccc3C2C1 (stereo not shown) [Praziquantel]
[2]
  ThS net change: 418

## COc1cc2nc(N3CCN(C(=O)c4ccco4)CC3)nc(N)c2cc1OC [Prazosin hydrochloride]
[4]
  ThS net change: 367

## CCOC(=O)O[C@]1(C(=O)COC(=O)CC)CC[C@H]2[C@@H]3CCC4=CC(=O)C=C[C@]4(C)[C@H]3[C@@H](O)C[C@@]21C [Prednicarbate, prednicarbate]
[2]
  ThS net change: 910

## C[C@]12C=CC(=O)C=C1CC[C@@H]1[C@@H]2[C@@H](O)C[C@@]2(C)[C@H]1CC[C@]2(O)C(=O)CO [Prednisolone]
[1]
  ThS net change: 351

## C[C@]12C=CC(=O)C=C1CC[C@@H]1[C@@H]2C(=O)C[C@@]2(C)[C@H]1CC[C@]2(O)C(=O)CO [Prednisone]
[1]
  ThS net change: 366

## CC(C)C[C@H](CN)CC(=O)O [Pregabalin]
[6]
  ThS net change: 400

## CC(=O)[C@H]1CC[C@H]2[C@@H]3CC=C4C[C@@H](O)CC[C@]4(C)[C@H]3CC[C@]12C [Pregnenolone]
[2]
  ThS net change: 482

## CC(Cc1ccccc1)NCCC(c1ccccc1)c1ccccc1 (stereo not shown) [Prenylamine lactate]
[6]
  ThS net change: 401

## CS(=O)(=O)O.OC(CCN1CCCCC1)(c1ccccc1)c1ccccc1 [Pridinol methanesulfonate salt]
[1]
  ThS net change: 350

## CCCNC(C)C(=O)Nc1ccccc1C (stereo not shown) [Prilocaine hydrochloride]
[3]
  ThS net change: 378

## COc1cc(NC(C)CCCN)c2ncccc2c1 (stereo not shown) [Primaquine diphosphate]
  ThS net change: 250

## CCC1(c2ccccc2)C(=O)NCNC1=O [Primidone]
[1]
  ThS net change: 346
